# Results from PubChem BioAssay (NCI).
#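 Results reflect a 48-hour exposure of cells in 96-well plates to compound at five concentrations. TGI marks complete inhibition of growth.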
# Experiments:
# Experiment in all cases: growth of human tumour cells (NCI), 48 h
# A549 NSCLC = test system: A549 NSCLC
# ACHN renal = test system: ACHN renal
# HL-60(TB) leukemia = test system: HL-60(TB) leukemia
# K-562 leukemia = test system: K-562 leukemia
# LOX IMVI melanoma = test system: LOX IMVI melanoma
# NCI-H522 lung = test system: NCI-H522 lung
# OVCAR-5 ovarian = test system: OVCAR-5 ovarian
# RPMI-8226 leukemia = test system: RPMI-8226 leukemia
# SK-MEL-28 melanoma = test system: SK-MEL-28 melanoma
# SW-620 colon = test system: SW-620 colon
smiles,measurement,setting,value
COC1=C2CC(C)CC(OC)C(OC(=O)CCCN)C(C)/C=C(\C)C(OC(N)=O)C(OC)/C=C\C=C(/C)C(=O)NC(=CC1=O)C2=O (stereo not given),TGI,A549 NSCLC,55.1 µM
same,TGI,ACHN renal,17.8 µM
same,TGI,HL-60(TB) leukemia,1.65 µM
same,TGI,K-562 leukemia,19.4 µM
same,TGI,LOX IMVI melanoma,11.4 µM
same,TGI,NCI-H522 lung,1.96 µM
same,TGI,OVCAR-5 ovarian,23.8 µM
same,TGI,RPMI-8226 leukemia,32.5 µM
same,TGI,SK-MEL-28 melanoma,23.7 µM
same,TGI,SW-620 colon,17.7 µM
CCC(C)N1CN(c2ccccc2)C2(CCN(CCCSc3ccc(F)cc3)CC2)C1=O (stereo not given),TGI,A549 NSCLC,15.1 µM
same,TGI,ACHN renal,9.76 µM
same,TGI,HL-60(TB) leukemia,17.8 µM
same,TGI,K-562 leukemia,6.26 µM
same,TGI,LOX IMVI melanoma,8.35 µM
same,TGI,NCI-H522 lung,18.9 µM
same,TGI,OVCAR-5 ovarian,7.06 µM
same,TGI,RPMI-8226 leukemia,5.72 µM
same,TGI,SK-MEL-28 melanoma,23.8 µM
same,TGI,SW-620 colon,17.3 µM
O=C(NCCCCCCCN1CCCCCCC1)C(C1CCCCC1)C1CCCCC1,TGI,A549 NSCLC,25.7 µM
same,TGI,ACHN renal,24.4 µM
same,TGI,HL-60(TB) leukemia,22.2 µM
same,TGI,K-562 leukemia,11.4 µM
same,TGI,LOX IMVI melanoma,26.2 µM
same,TGI,NCI-H522 lung,30.9 µM
same,TGI,OVCAR-5 ovarian,23.2 µM
same,TGI,RPMI-8226 leukemia,6.71 µM
same,TGI,SK-MEL-28 melanoma,16.3 µM
same,TGI,SW-620 colon,56.1 µM
CC(=O)NCCCCN(CCCNC(C)=O)C(=O)OCc1ccccc1,TGI,A549 NSCLC,> 100 µM
same,TGI,ACHN renal,> 100 µM
same,TGI,HL-60(TB) leukemia,> 100 µM
same,TGI,K-562 leukemia,> 100 µM
same,TGI,LOX IMVI melanoma,> 100 µM
same,TGI,NCI-H522 lung,> 100 µM
same,TGI,OVCAR-5 ovarian,> 100 µM
same,TGI,RPMI-8226 leukemia,> 100 µM
same,TGI,SK-MEL-28 melanoma,> 100 µM
same,TGI,SW-620 colon,> 100 µM
CC(C)N(C(=O)C12C3C4C1C1C2C3C41C(=O)N(C(C)C)C(C)C)C(C)C (stereo not given),TGI,A549 NSCLC,> 50 µM
same,TGI,ACHN renal,> 50 µM
same,TGI,HL-60(TB) leukemia,> 50 µM
same,TGI,K-562 leukemia,> 50 µM
same,TGI,LOX IMVI melanoma,> 50 µM
same,TGI,NCI-H522 lung,> 50 µM
same,TGI,OVCAR-5 ovarian,> 50 µM
same,TGI,RPMI-8226 leukemia,> 50 µM
same,TGI,SK-MEL-28 melanoma,> 50 µM
same,TGI,SW-620 colon,> 50 µM
COC(=O)c1ccc(C=C(C#N)C#N)cc1,TGI,A549 NSCLC,> 100 µM
same,TGI,ACHN renal,56.9 µM
same,TGI,HL-60(TB) leukemia,58.1 µM
same,TGI,K-562 leukemia,62.8 µM
same,TGI,LOX IMVI melanoma,50.3 µM
same,TGI,NCI-H522 lung,30.1 µM
same,TGI,OVCAR-5 ovarian,> 100 µM
same,TGI,RPMI-8226 leukemia,72.6 µM
same,TGI,SK-MEL-28 melanoma,39.9 µM
same,TGI,SW-620 colon,45.1 µM
C[C@@]1(OC(=O)c2cc([N+](=O)[O-])cc([N+](=O)[O-])c2)C[C@@H]2CCCC[C@@H]21,TGI,A549 NSCLC,> 100 µM
same,TGI,ACHN renal,> 100 µM
same,TGI,HL-60(TB) leukemia,> 100 µM
same,TGI,K-562 leukemia,> 100 µM
same,TGI,LOX IMVI melanoma,> 100 µM
same,TGI,NCI-H522 lung,> 100 µM
same,TGI,OVCAR-5 ovarian,> 100 µM
same,TGI,RPMI-8226 leukemia,> 100 µM
same,TGI,SK-MEL-28 melanoma,> 100 µM
same,TGI,SW-620 colon,> 100 µM
CN1CCC/C1=C1/C(=O)N(c2ccccc2)N=C1c1ccc[nH]1,TGI,A549 NSCLC,> 100 µM
same,TGI,ACHN renal,> 100 µM
same,TGI,HL-60(TB) leukemia,> 100 µM
same,TGI,K-562 leukemia,> 100 µM
same,TGI,LOX IMVI melanoma,> 100 µM
same,TGI,NCI-H522 lung,> 100 µM
same,TGI,OVCAR-5 ovarian,> 100 µM
same,TGI,RPMI-8226 leukemia,> 100 µM
same,TGI,SK-MEL-28 melanoma,> 100 µM
same,TGI,SW-620 colon,> 100 µM
Nc1nc2c(ncn2CCCC(c2ccccc2)P(=O)(O)O)c(=O)[nH]1 (stereo not given),TGI,A549 NSCLC,> 100 µM
same,TGI,ACHN renal,> 100 µM
same,TGI,HL-60(TB) leukemia,> 100 µM
same,TGI,K-562 leukemia,> 100 µM
same,TGI,LOX IMVI melanoma,> 100 µM
same,TGI,NCI-H522 lung,> 100 µM
same,TGI,OVCAR-5 ovarian,> 100 µM
same,TGI,RPMI-8226 leukemia,> 100 µM
same,TGI,SK-MEL-28 melanoma,> 100 µM
same,TGI,SW-620 colon,> 100 µM
CSC(=N)N1N=C2/C(=C/c3ccccc3)CCC[C@H]2[C@H]1c1ccccc1,TGI,A549 NSCLC,16.3 µM
same,TGI,ACHN renal,11.8 µM
same,TGI,HL-60(TB) leukemia,4.29 µM
same,TGI,K-562 leukemia,6.09 µM
same,TGI,LOX IMVI melanoma,16.2 µM
same,TGI,NCI-H522 lung,17.2 µM
same,TGI,OVCAR-5 ovarian,14.7 µM
same,TGI,RPMI-8226 leukemia,7.12 µM
same,TGI,SK-MEL-28 melanoma,12 µM
same,TGI,SW-620 colon,15.3 µM
Cc1nnc(N/N=C(/C(=O)C(C#N)c2ccc(Cl)cc2)C(C#N)c2ccc(Cl)cc2)n1N (stereo not given),TGI,A549 NSCLC,43.9 µM
same,TGI,ACHN renal,30.8 µM
same,TGI,HL-60(TB) leukemia,55.4 µM
same,TGI,K-562 leukemia,45.4 µM
same,TGI,LOX IMVI melanoma,35.4 µM
same,TGI,NCI-H522 lung,32.3 µM
same,TGI,OVCAR-5 ovarian,33.6 µM
same,TGI,RPMI-8226 leukemia,45.6 µM
same,TGI,SK-MEL-28 melanoma,33.8 µM
same,TGI,SW-620 colon,37.3 µM
CCOC(=O)/C=C/C1(CCOC(C)=O)CCCCC1,TGI,A549 NSCLC,> 10 µM
same,TGI,ACHN renal,> 10 µM
same,TGI,HL-60(TB) leukemia,> 10 µM
same,TGI,K-562 leukemia,> 10 µM
same,TGI,LOX IMVI melanoma,> 10 µM
same,TGI,NCI-H522 lung,> 10 µM
same,TGI,OVCAR-5 ovarian,> 10 µM
same,TGI,RPMI-8226 leukemia,> 10 µM
same,TGI,SK-MEL-28 melanoma,> 10 µM
same,TGI,SW-620 colon,> 10 µM
COC(=O)CCC(NC(=S)N/N=C(\C)c1cnccn1)C(=O)OC (stereo not given),TGI,A549 NSCLC,> 100 µM
same,TGI,ACHN renal,> 100 µM
same,TGI,HL-60(TB) leukemia,38.6 µM
same,TGI,K-562 leukemia,> 100 µM
same,TGI,LOX IMVI melanoma,> 100 µM
same,TGI,NCI-H522 lung,84 µM
same,TGI,OVCAR-5 ovarian,79.7 µM
same,TGI,RPMI-8226 leukemia,> 100 µM
same,TGI,SK-MEL-28 melanoma,> 100 µM
same,TGI,SW-620 colon,> 100 µM
CSc1nc2c3ccccc3ccn2c1C(=O)N/N=C/c1ccccc1,TGI,A549 NSCLC,> 100 µM
same,TGI,ACHN renal,25.3 µM
same,TGI,HL-60(TB) leukemia,> 100 µM
same,TGI,K-562 leukemia,> 100 µM
same,TGI,LOX IMVI melanoma,> 100 µM
same,TGI,NCI-H522 lung,> 100 µM
same,TGI,OVCAR-5 ovarian,> 100 µM
same,TGI,RPMI-8226 leukemia,> 100 µM
same,TGI,SK-MEL-28 melanoma,> 100 µM
same,TGI,SW-620 colon,> 100 µM
CCOC(=O)/C=C\C(C#N)(C#N)N=Cc1ccsc1,TGI,A549 NSCLC,38.2 µM
same,TGI,ACHN renal,9.26 µM
same,TGI,HL-60(TB) leukemia,5.14 µM
same,TGI,K-562 leukemia,14.3 µM
same,TGI,LOX IMVI melanoma,15.1 µM
same,TGI,NCI-H522 lung,2.83 µM
same,TGI,OVCAR-5 ovarian,33.1 µM
same,TGI,RPMI-8226 leukemia,4.25 µM
same,TGI,SK-MEL-28 melanoma,6.89 µM
same,TGI,SW-620 colon,4.11 µM
Cc1ccc(/N=N/C(=NNC(=O)c2ccc(C)cc2)c2ccc(N(C)C)cc2)cc1,TGI,A549 NSCLC,87.9 µM
same,TGI,ACHN renal,92.4 µM
same,TGI,HL-60(TB) leukemia,72.1 µM
same,TGI,K-562 leukemia,> 100 µM
same,TGI,LOX IMVI melanoma,> 100 µM
same,TGI,NCI-H522 lung,49.9 µM
same,TGI,OVCAR-5 ovarian,> 100 µM
same,TGI,RPMI-8226 leukemia,70.5 µM
same,TGI,SK-MEL-28 melanoma,> 100 µM
same,TGI,SW-620 colon,> 100 µM
